Data from article PMC8657792, “Interaction Profiles of Central Nervous System Active Drugs at Human Organic Cation Transporters 1–3 and Human Plasma Membrane Monoamine Transporter” (International Journal of Molecular Sciences, 2021).
Read-outs that look alike come from different tables or passages of the source.

Experiments:
hOCT1 [1] = molecular target: T1, hOCT1 (Homo sapiens, UniProt O15245); test: [3H]MPP+ uptake inhibition assay, HEK293 cells stably expressing hOCT1; assay type: cell-based; details: for Effect on substrate uptake by hOCT1 (in words): [3H]MPP+ uptake, HEK293 hOCT1
T1 construct: expressed in transfected cells
T1 sequence (O15245 1-554): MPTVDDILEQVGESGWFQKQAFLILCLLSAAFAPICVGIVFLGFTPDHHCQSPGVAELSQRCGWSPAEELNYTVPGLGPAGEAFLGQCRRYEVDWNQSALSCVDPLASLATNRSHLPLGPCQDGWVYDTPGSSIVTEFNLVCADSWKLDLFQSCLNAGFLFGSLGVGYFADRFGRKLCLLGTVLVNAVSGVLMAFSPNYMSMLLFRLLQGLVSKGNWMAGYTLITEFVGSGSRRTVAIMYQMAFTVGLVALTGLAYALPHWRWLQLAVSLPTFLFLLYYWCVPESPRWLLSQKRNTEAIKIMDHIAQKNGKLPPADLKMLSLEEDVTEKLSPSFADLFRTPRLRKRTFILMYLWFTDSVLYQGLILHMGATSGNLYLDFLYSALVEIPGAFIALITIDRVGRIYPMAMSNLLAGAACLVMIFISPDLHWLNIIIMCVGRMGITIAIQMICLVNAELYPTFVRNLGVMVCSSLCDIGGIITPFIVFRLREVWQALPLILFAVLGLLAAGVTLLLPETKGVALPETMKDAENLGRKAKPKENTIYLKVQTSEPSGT
Method: (§1) HEK293 cells were transfected with a plasmid, encoding the transporter of interest and an N-terminal YFP-tag, carried out using jetPRIME ^© (Polyplus Transfection; (VWR International GmbH, Vienna, Austria)) reagent (for a 10 cm dish with 1–2 × 10^6 cells in 10 mL serum containing medium at 60–80% confluency: 500 μ L jetPRIME ^© buffer, 10 μ g DNA and 20 μ L jetPRIME ^© reagent) and selection pressure maintained for two weeks [2, 54, 55]. Subsequently, 500,000 cells were FACS-sorted (fluorescence-activated cell sorting) according to expression level to establish cell lines stably expressing the protein of interest. […] For uptake inhibition assays, cells were cultured at a subconfluent (80–90% density) state in high-glucose Dulbecco’s Modified Eagle Medium (DMEM ), enriched with 10% heat-inactivated Fetal Bovine Serum (FBS) and penicillin/streptomycin (PS; 100 U × 100 mL ^−1 , each). Selection pressure was maintained by the addition of geneticin (50 mg × mL ^−1 ) at 37 ^∘ C and 5% CO 2 in a humidified incubator. At a density of 60,000 cells per well, HEK293 cells expressing the respective transporter were seeded onto poly-D-lysine-coated wells 24 h prior to uptake inhibition experiments in a final volume of 200 μ L per well.
(§2) Prior to the addition of the respective compounds, DMEM was removed from all wells and replaced with 200 μ L of Krebs-HEPES-buffer (KHB; 10 mM HEPES, 120 mM NaCl, 3 mM KCl, 2 mM CaCl 2 , 2 mM MgSO 4 and 20 mM D-glucose, pH adjusted to 7.3) at room temperature. Cells were exposed to a pre-incubation solution containing the compound of interest in the respective concentration (dissolved in Krebs-HEPES-buffer) for 10 min with a total volume of 50 μ L, which was then replaced with a 50 μ L uptake solution containing 0.05 μ M of tritiated 1-methyl-4-phenylpyridinium ([ ^3 H]MPP ^+ ) as substrate, and the compound of interest in respective concentrations, for 10 minutes each. Finally, uptake was terminated by washing with 200 μ L of ice-cold (4 ^∘ C) KHB, after which cells were lysed with 200 μ L of 1% sodium dodecyl sulphate (SDS). After transferring the solution of each well into 6 mL counting vials containing 2 mL of scintillation cocktail, the vials were measured with a beta-scintillation counter for quantification of the uptake of tritiated substrate. […] To obtain specific data, non-specific uptake was assessed in the presence of 100 μ M D22 and subtracted from the total data. The 100% values were defined as uptake in the absence of a tested substance, defining maximal uptake capacity. Inhibitions of the compound of interest were described as a percentage of the maximal uptake capacity.
(§3) Half-maximal inhibitory concentration ( IC50 ) values of each substance were calculated and plotted using GraphPad Prism 8.4.3 (GraphPad Software Inc., San Diego, CA, USA). IC50 was determined by non-linear regression, solving the equation Y=Bottom+(Top−Bottom)/(1+10^X−LogEC50) . […] All data stem from a minimum of three separate experiments (n≥ 3) executed in triplicates and are shown as mean ± SD.

hOCT2 = molecular target: T2, hOCT2 (Homo sapiens, UniProt O15244); test: [3H]MPP+ uptake inhibition assay, HEK293 cells stably expressing hOCT2; assay type: cell-based; details: for Effect on substrate uptake by hOCT2 (in words): [3H]MPP+ uptake, HEK293 hOCT2
T2 construct: expressed in transfected cells
T2 sequence (O15244 1-555): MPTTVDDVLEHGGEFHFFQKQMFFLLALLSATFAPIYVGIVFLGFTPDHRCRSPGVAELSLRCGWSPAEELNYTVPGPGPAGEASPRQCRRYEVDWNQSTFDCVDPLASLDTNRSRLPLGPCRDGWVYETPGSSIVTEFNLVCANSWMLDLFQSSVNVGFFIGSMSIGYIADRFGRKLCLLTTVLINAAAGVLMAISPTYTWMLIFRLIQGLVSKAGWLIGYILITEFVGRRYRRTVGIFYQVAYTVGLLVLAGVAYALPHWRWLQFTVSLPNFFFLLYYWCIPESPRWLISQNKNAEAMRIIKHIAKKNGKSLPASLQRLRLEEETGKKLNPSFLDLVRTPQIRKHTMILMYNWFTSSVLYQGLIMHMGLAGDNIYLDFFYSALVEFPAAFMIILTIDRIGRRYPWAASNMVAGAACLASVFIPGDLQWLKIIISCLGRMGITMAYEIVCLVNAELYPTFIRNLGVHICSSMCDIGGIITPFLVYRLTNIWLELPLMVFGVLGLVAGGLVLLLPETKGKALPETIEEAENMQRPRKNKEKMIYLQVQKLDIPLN
Method: as §1, §2, §3

hOCT3 = molecular target: T3, hOCT3 (Homo sapiens, UniProt O75751); test: [3H]MPP+ uptake inhibition assay, HEK293 cells stably expressing hOCT3; assay type: cell-based; details: for Effect on substrate uptake by hOCT3 (in words): [3H]MPP+ uptake, HEK293 hOCT3
T3 construct: expressed in transfected cells
T3 sequence (O75751 1-556): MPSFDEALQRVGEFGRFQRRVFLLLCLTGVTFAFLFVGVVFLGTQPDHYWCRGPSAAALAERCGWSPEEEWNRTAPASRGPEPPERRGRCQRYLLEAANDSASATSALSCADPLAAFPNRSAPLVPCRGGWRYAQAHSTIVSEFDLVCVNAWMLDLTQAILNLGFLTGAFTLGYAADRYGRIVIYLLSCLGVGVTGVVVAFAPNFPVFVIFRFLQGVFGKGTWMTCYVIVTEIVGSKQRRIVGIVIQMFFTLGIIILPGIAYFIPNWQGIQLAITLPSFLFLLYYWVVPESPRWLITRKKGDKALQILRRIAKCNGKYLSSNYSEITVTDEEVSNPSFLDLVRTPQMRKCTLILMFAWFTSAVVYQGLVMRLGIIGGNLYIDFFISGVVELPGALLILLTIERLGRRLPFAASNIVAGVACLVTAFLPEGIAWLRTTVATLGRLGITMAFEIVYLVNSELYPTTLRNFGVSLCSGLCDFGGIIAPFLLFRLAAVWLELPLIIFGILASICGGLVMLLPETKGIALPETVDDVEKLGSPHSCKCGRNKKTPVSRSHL
Method: as §1, §2, §3

hPMAT = molecular target: T4, hPMAT (Homo sapiens, UniProt Q7RTT9); test: [3H]MPP+ uptake inhibition assay, HEK293 cells stably expressing hPMAT; assay type: cell-based; details: for Effect on substrate uptake by hPMAT (in words): [3H]MPP+ uptake, HEK293 hPMAT
T4 construct: expressed in transfected cells
T4 sequence (Q7RTT9 1-530): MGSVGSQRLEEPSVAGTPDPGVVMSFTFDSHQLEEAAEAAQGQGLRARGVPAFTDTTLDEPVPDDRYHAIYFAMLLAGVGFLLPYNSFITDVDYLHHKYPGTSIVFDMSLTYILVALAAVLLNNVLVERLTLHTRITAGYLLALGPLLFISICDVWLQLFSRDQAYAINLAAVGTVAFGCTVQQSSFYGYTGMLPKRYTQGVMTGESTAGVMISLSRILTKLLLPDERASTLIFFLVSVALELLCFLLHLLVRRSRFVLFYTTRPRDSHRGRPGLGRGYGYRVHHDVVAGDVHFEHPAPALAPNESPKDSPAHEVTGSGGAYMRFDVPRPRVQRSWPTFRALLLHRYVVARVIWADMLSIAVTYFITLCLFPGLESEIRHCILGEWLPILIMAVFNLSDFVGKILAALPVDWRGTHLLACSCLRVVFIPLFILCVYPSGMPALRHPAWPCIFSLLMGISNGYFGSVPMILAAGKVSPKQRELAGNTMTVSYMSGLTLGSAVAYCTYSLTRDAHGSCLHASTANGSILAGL
Method: as §1, §2, §3

hOCT1 [2] = molecular target: T1, hOCT1; details: read-out: IC50 literature hOCT1; Table S1; supplementary reference list; cited from earlier work
[3] = HEK293 stably expressing hPMAT, 0.05 μM [3H]MPP+, 10 min pre-incubation, 10 min uptake, brackets in Table S1 = 95%-CI, n.s. = non-significant
[4] = HEK293 stably expressing hOCT1, 0.05 μM [3H]MPP+, 10 min pre-incubation, 10 min uptake, brackets in Table S1 = 95%-CI, n.s. = non-significant, read-out: IC50 hOCT1 (inhibitory potency, [3H]MPP+ uptake)
[5] = HEK293 stably expressing hOCT2, 0.05 μM [3H]MPP+, 10 min pre-incubation, 10 min uptake, brackets in Table S1 = 95%-CI, n.s. = non-significant, read-out: IC50 hOCT2 (inhibitory potency, [3H]MPP+ uptake)
[6] = HEK293 stably expressing hPMAT, 0.05 μM [3H]MPP+, 10 min pre-incubation, 10 min uptake, brackets in Table S1 = 95%-CI, n.s. = non-significant, read-out: IC50 hPMAT (inhibitory potency, [3H]MPP+ uptake)
[7] = HEK293 stably expressing hOCT3, 0.05 μM [3H]MPP+, 10 min pre-incubation, 10 min uptake, brackets in Table S1 = 95%-CI, n.s. = non-significant
[8] = HEK293 stably expressing hOCT1, 0.05 μM [3H]MPP+, 10 min pre-incubation, 10 min uptake, brackets in Table S1 = 95%-CI, n.s. = non-significant
[9] = HEK293 stably expressing hOCT2, 0.05 μM [3H]MPP+, 10 min pre-incubation, 10 min uptake, brackets in Table S1 = 95%-CI, n.s. = non-significant

Row | Compound | IC50 (hOCT1 [1]) [µM] | IC50 (hOCT2) [µM] | IC50 hPMAT (inhibitory potency, [3H]MPP+ uptake) (hPMAT; [3]) | IC50 hOCT3 (inhibitory potency, [3H]MPP+ uptake) (hOCT3; [7]) | Effect on substrate uptake by hOCT2 (in words) (hOCT2) | Effect on substrate uptake by hOCT3 (in words) (hOCT3) | Effect on substrate uptake by hPMAT (in words) (hPMAT) | further results
1 | CNC1(c2ccccc2F)CCCCC1=O (stereo not drawn) [2-Fluoro-deschloroketamine, 2-fluoro-deschloroketamine] | 14.1 | 19.2 | n.s. |  |  |  |  | IC50 (hOCT3): 265 µM
2 | CCN1/C(=C/c2ccc3ccccc3[n+]2CC)C=Cc2ccccc21 [Decynium-22] |  |  |  |  |  |  |  | IC50 (hOCT1 [1]; [4]): 2.66 µM; IC50 (hOCT2; [5]): 4.56 µM; IC50 (hOCT3; HEK293 stably expressing hOCT3, 0.05 μM [3H]MPP+, 10 min pre-incubation, 10 min uptake, brackets in Table S1 = 95%-CI, n.s. = non-significant, read-out: IC50 hOCT3 (inhibitory potency, [3H]MPP+ uptake)): 0.16 µM; IC50 (hPMAT; [6]): 0.35 µM
3 | COC(=O)C(c1ccccc1)C1CCCCN1 (stereo not drawn) [Methylphenidate, methylphenidate] | 0.36 | 28.8 | n.s. | n.s. |  |  |  | 
4 | NC(=O)C[S+]([O-])C(c1ccccc1)c1ccccc1 (stereo not drawn) [Modafinil, modafinil] |  |  | n.s. | n.s. | did not interact | did not interact | did not interact | IC50 hOCT1 (inhibitory potency, [3H]MPP+ uptake) (hOCT1 [1]; [8]): n.s.; Effect on substrate uptake by hOCT1 (in words) (hOCT1 [1]): did not interact; IC50 hOCT2 (inhibitory potency, [3H]MPP+ uptake) (hOCT2; [9]): n.s.
5 | CN(C)C[C@H]1CCCC[C@]1(O)c1cccc(O)c1 [O-Desmethyltramadol, O-desmethyltramadol] | 24.2 | 372 | n.s. | n.s. |  | No interaction |  | IC50 (hOCT1 [2]): 172 µM
6 | CCC1(c2ccccc2)C(=O)NC(=O)NC1=O [Phenobarbital, phenobarbital] |  |  |  | n.s. | increased uptake of substrate | not interacting | not interacting | IC50 hOCT1 (inhibitory potency, [3H]MPP+ uptake) (hOCT1 [1]; [8]): n.s.; Effect on substrate uptake by hOCT1 (in words) (hOCT1 [1]): increased uptake of substrate; IC50 hOCT2 (inhibitory potency, [3H]MPP+ uptake) (hOCT2; [9]): n.s.; IC50 (hPMAT): 1030 µM
7 | CN(C)CCc1c[nH]c2cccc(O)c12 [Psilocin, psilocin] | 63.5 |  |  | n.s. | did not inhibit | did not inhibit | did not inhibit | Effect on substrate uptake by hOCT1 (in words) (hOCT1 [1]): did not inhibit; IC50 hOCT2 (inhibitory potency, [3H]MPP+ uptake) (hOCT2; [9]): n.s.; IC50 (hPMAT): 698 µM
8 | CCC[C@H](C(=O)c1ccccc1)N1CCCC1 [R- α -PVP, R- α -pyrrolidinovalerophenone] | 2.15 | 13.1 | n.s. |  |  |  | increased uptake of substrate | IC50 (hOCT3): 1020 µM
9 | CN(C)CCC[C@]1(c2ccc(F)cc2)OCc2cc(C#N)ccc21 [R-Citalopram, R-citalopram] |  |  |  |  |  |  |  | IC50 (hOCT1 [1]; [4]): 5.11 µM; IC50 (hOCT2; [5]): 46.6 µM; IC50 (hPMAT; [6]): 58.3 µM
10 | CCC[C@@H](C(=O)c1ccccc1)N1CCCC1 [S- α -PVP, S- α -pyrrolidinovalerophenone] | 1.07 | 15 | n.s |  |  |  | increased uptake of substrate | IC50 (hOCT3): 457 µM
11 | CN(C)CCC[C@@]1(c2ccc(F)cc2)OCc2cc(C#N)ccc21 [S-Citalopram, S-citalopram] |  |  |  |  |  |  |  | IC50 (hOCT1 [1]; [4]): 7.15 µM; IC50 (hOCT2; [5]): 59.9 µM; IC50 (hPMAT; [6]): 160 µM
12 | COc1cccc(C2(O)CCCCC2CN(C)C)c1 (stereo not drawn) [Tramadol, tramadol] | 5.6 | 64.1 |  | n.s. | fails to fully inhibit | No interaction | fails to fully inhibit | IC50 (hPMAT): 74.2 µM; IC50 (hOCT1 [2]): 30 µM
